Reference: patent publication EP4775203A1, “VANILLIC ACID DERIVATIVE COMPOUND, THERAPEUTIC AGENT COMPOSITION FOR ALZHEIMER'S DISEASE COMPRISING SAME, AND THERAPEUTIC AGENT COMPOSITION FOR NEUROINFLAMMATION” (Theranocure Co., Ltd., priority 2023, dated 2025)

What was measured:
[1] = biological target: T1, dopamine receptor 2 (D2R) (Mus musculus, UniProt P61168); test: Protein-ligand interaction (CETSA); assay type: binding
T1 construct: endogenous in cells; BV2 inferred
Protocol: (§1) This experiment was conducted to identify the receptor targeted by VD. Dopamine receptors (D1-D5) are present on the membranes of neurons, microglia, and astrocytes. The study aimed to determine through which pathway VD exerts its anti-inflammatory effects. Since dopamine receptors are broadly classified into the D1-like and D2-like families, representative dopamine receptor 1 (D1R) and dopamine receptor 2 (D2R) were evaluated using CETSA.

[2] = biological target: T2, dopamine receptor 1 (D1R) (Mus musculus, UniProt Q61616); test: Protein-ligand interaction (CETSA); assay type: binding
T2 construct: endogenous in cells; BV2 inferred
Protocol: as §1

[3] = test system: iNOS; test: Western blot of pro-inflammatory factors in LPS-treated cells; assay type: cell-based; details: compared to LPS-only treated group
Protocol: (§2) This in vitro experiment was performed to evaluate the ability of VD to suppress inflammatory responses. After extracting proteins from treated cells, the expression levels of inflammatory factors such as IL-6, iNOS, NLRP3, and TNF-α were analyzed by Western blotting. β-actin was used as an internal control for protein quantification. […] Accordingly, it may be concluded that VD affects both inflammatory and pro-inflammatory factors.

[4] = test system: TNF-α; test: as above; assay type: cell-based; details: compared to LPS-only treated group
Protocol: as §2

[5] = test system: IL-6; test: as above; assay type: cell-based; details: compared to LPS-only treated group
Protocol: as §2

[6] = test system: BV2 cells; test: Nitric oxide (NO) secretion analysis (Griess reagent) after LPS treatment; assay type: cell-based, mouse; details: LPS 2 hours, then VD 12 hours; all tested concentrations (up to 100 µM); compared to LPS-only group
Protocol: This evaluation example was conducted to assess the effect of VD on nitric oxide (NO) secretion. Nitric oxides such as NO are inflammatory mediators that increase during inflammatory responses or infection and serve as important indicators of inflammation severity. By determining whether VD can inhibit NO secretion, the anti-inflammatory effect of VD was evaluated. After stabilizing BV2 cells, the cells were treated with LPS for 2 hours, followed by the addition of VD and incubation for 12 hours. The supernatant was collected from the cultured cells and centrifuged at 5,000 rpm for 2 minutes at 4°C. The analysis was performed using a Griess reagent kit, and the concentration of nitric oxide was calculated by measuring absorbance at 540 nm.

[7] = test system: CREB; test: Western blot for CREB / pCREB in LPS-treated cells; assay type: cell-based; details: LPS 1000 ng/mL, 100 µM VD, with or without additive (PG)
Protocol: This experiment was performed to evaluate how VD regulates the CREB factor, which plays an important role in inflammatory signaling pathways. CREB (cAMP response element-binding protein) is a transcription factor that regulates various intracellular signaling pathways. When activated, CREB plays an important role in suppressing the NF-κB pathway. Since NF-κB is one of the major mediators of inflammatory responses, activation of CREB is closely associated with inflammation suppression. After inducing an inflammatory response in cells by treating them with LPS (1000 ng/mL), VD was subsequently administered at concentrations of 10 µM, 50 µM, and 100 µM. A group treated with both VD and the additive (propylene glycol, PG) was also included. Western blot analysis was then performed to examine the expression levels of CREB and its activated form, pCREB. β-actin was used as an internal control for protein quantification.

[8] = test system: NF-κB; test: Western blot for pNF-κB in LPS-treated cells; assay type: cell-based; details: LPS 1000 ng/mL, 100 µM VD
Protocol: This experiment was conducted to evaluate how VD regulates the NF-κB pathway, which plays a critical role in inflammatory responses. NF-κB is a key transcription factor that regulates inflammatory responses, and when activated within cells, it promotes the expression of inflammatory cytokines. Therefore, inhibition of NF-κB activation may play an important role in suppressing inflammation. CREB acts upstream of the NF-κB pathway, and activation of CREB is associated with inhibition of the NF-κB pathway. Cells were treated with LPS (1000 ng/mL) to activate the NF-κB pathway and induce an inflammatory response, followed by treatment with VD at a concentration of 100 µM. A group treated with both VD and the additive (propylene glycol, PG) was also included for comparison. Western blot analysis was performed to examine the expression of pNF-κB, the activated form of NF-κB, and Lamin B was used as a control for nuclear protein quantification.

[9] = test system: dementia mouse model (5xFAD); test: Water maze experiment (cognitive function); assay type: in vivo
From the text: Latency to Target represents the time required to reach the target platform. As dementia progresses, cognitive function declines, leading to increased latency.
Occupancy in Target Quadrant refers to the extent to which the mice reached or remained in the quadrant containing the target. […] Number of Target Crossings represents the number of times the mice crossed the location of the target platform.

[10] = test system: BV2 cells; test: Cell viability assay (CCK-8); assay type: cell-based, mouse; details: VD alone
Protocol: (§3) The cytotoxicity of the synthesized VD was evaluated through a cell viability assay. BV2 cells (normal mouse brain-derived cells) were used. The cells were cultured in a growth medium containing DMEM supplemented with 10% FBS (fetal bovine serum). The medium further contained 1% antibiotic-antimycotic solution, 1% insulin-transferrin-selenium, and 40 ng/mL dexamethasone, and the cells were incubated at 37°C in a humidified atmosphere containing 5% CO2. […] After maintaining the cells under serum-free conditions for 24 hours, subsequent incubation for 48 hours was performed using RPMI 1640 medium containing 10% FBS and […]. Thereafter, fresh complete medium containing Cell Counting Kit-8 (CCK-8) solution was added to the plate and incubated for 3 hours. Cell viability was measured by absorbance at 450 nm using a SpectraMax® i3 (Molecular Devices, CA, U.S.).

[11] = Cell viability assay (CCK-8); assay type: cell-based, mouse; details: mouse, bv2 cells, VD + additive propylene glycol (PG)
Protocol: as §3

[12] = test system: NLRP3; test: Western blot of inflammatory factors in LPS-treated cells; assay type: cell-based; details: compared to LPS-only treated group
Protocol: as §2

[13] = test system: Alzheimer's disease mouse model (5xFAD); test: Western blot of hippocampus and cerebral cortex proteins after IV treatment; assay type: in vivo
Protocol: This evaluation example was conducted to assess the effect of VD (vanillic acid-dopamine derivative) on the expression of specific proteins when administered to a 12-month-old Alzheimer's disease mouse model (5xFAD).
A total of 13 twelve-month-old 5xFAD mice were used in this experiment. The experiment was divided into three groups: (1) a normal wild-type group, (2) a dementia-induced group administered saline (5xFAD + saline), and (3) a dementia-induced group administered VD (5xFAD + VD). Each group received intravenous (IV) injections of the respective substance six times over a total period of 20 days. After completion of the treatment, the brains were harvested from the mice, and hippocampal tissue was isolated for further analysis. Protein expression of specific factors was evaluated using the hippocampal tissue. To extract proteins, the tissue was homogenized in RIPA buffer and centrifuged at 13,000 rpm for 15 minutes at 4°C. The supernatant was collected, and protein concentration was measured using a BCA protein assay kit. Equal amounts of protein were loaded onto 8.5% SDS-PAGE gels and transferred to an Immobilon-P membrane. The membranes were blocked with 3% bovine serum albumin (BSA) in Tris-buffered saline containing 0.05% Tween-20 (TBS-T) for 3 hours at room temperature. Thereafter, diluted primary antibodies were incubated overnight at 4°C in 3% BSA. The membranes were washed three times and then incubated with secondary antibodies for 1 hour. Western blot bands were detected using PicoEPD Western Reagent and SuperSignal™ West Femto Maximum Sensitivity Substrate, and images were captured using a chemiluminescent western imaging system. The obtained images were analyzed using ImageJ software.
FIGS. 14 and 15 show Western blot results analyzing changes in protein expression in the hippocampus and cerebral cortex, respectively, after treatment with VD (vanillic acid-dopamine derivative). These experiments were conducted using Alzheimer's disease model mice (5xFAD), and the expression levels of various inflammatory and neurodegeneration-related proteins were compared to evaluate the effect of VD. Both FIGS. 14 and 15 were conducted in two independent sets, with the left panels showing the results of the first set and the right panels showing the results of the second set.
This figure quantitatively evaluates the anti-inflammatory and neuroprotective effects of VD in Alzheimer's disease model mice (5xFAD). For this purpose, VD was administered to dementia model mice at two doses, 2 mg/kg and 4 mg/kg. The inflammatory and neurodegeneration-related factors analyzed in this experiment were as follows. NLRP3 is a protein complex acting as an inflammatory factor that plays an important role in regulating immune responses and inducing inflammation. BACE-1 (Beta-site Amyloid Precursor Protein Cleaving Enzyme 1) is an enzyme that cleaves amyloid precursor protein (APP) to generate β-amyloid. β-amyloid is one of the primary causative substances of Alzheimer's disease, and its accumulation is considered a key pathological feature of the disease. IBA-1 is a marker of microglial activation, indicating activation of microglia, which play a crucial role in immune and inflammatory responses in the brain. GFAP is a marker of astrocyte activation, and increased GFAP expression indicates activation of astrocytes. When astrocytes and microglia are activated, they secrete pro-inflammatory cytokines, thereby promoting inflammatory responses.

[14] = 2 mg/kg and 4 mg/kg, IV six times over 20 days

T2 sequence (Q61616 whole entry): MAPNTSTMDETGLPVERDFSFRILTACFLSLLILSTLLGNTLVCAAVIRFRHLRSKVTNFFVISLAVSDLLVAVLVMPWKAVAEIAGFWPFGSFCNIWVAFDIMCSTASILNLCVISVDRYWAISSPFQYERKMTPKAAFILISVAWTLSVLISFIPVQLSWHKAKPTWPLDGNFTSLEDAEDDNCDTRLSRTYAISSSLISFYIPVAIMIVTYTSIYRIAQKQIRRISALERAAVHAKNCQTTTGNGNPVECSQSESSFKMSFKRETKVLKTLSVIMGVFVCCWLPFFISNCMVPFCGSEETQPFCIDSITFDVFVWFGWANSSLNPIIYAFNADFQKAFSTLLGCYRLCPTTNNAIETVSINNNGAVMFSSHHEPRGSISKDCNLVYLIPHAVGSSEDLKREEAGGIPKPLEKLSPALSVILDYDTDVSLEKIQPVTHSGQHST
T1 sequence (P61168 whole entry): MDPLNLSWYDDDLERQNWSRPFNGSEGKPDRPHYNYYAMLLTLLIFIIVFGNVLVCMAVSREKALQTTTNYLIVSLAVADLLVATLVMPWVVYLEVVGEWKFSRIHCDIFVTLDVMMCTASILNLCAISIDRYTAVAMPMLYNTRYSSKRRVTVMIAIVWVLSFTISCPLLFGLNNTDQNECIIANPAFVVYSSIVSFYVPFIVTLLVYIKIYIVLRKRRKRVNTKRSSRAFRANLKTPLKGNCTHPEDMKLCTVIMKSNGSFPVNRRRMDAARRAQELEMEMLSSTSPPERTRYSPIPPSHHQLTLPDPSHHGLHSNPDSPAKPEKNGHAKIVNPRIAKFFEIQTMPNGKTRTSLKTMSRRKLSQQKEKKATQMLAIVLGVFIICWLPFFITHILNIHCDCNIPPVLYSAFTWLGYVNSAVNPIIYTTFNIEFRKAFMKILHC

COc1cc(C(=O)NCCc2ccc(O)c(O)c2)ccc1O [VD]
CETSA change in D2R [1]: no significant change
CETSA change in D1R [2]: a change was observed
intensity of iNOS [3]: same pattern as NLRP3
intensity of TNF-α [4]: same pattern as NLRP3
intensity of IL-6 [5]: same pattern as NLRP3
NO secretion [6]: lower NO secretion
pCREB/CREB ratio [7]: significant increase
activation of NF-κB (pNF-κB) [8]: significantly reduced
Latency to Target ([9]; 4 mg/kg VD-treated group): most significant improvement
Number of Target Crossings ([9]; 4 mg/kg group vs untreated dementia mice): notably higher
Number of Target Crossings ([9]; VD-treated group vs untreated dementia mice): more frequently
Occupancy in Target Quadrant ([9]; VD-treated groups, particularly 4 mg/kg, vs untreated dementia mice): higher occupancy rate
Latency to Target ([9]; VD-treated vs untreated dementia mice): shorter
cell viability (cytotoxicity) ([10]; 0-100 µM): little to no cytotoxicity
cell viability (cytotoxicity) ([10]; 200 µM or more): slight cytotoxicity
viability at 100 µM ([11]; 100 µM): 84.7%
viability at 200 µM ([11]; 200 µM): 60.1%
viability at 400 µM ([11]; 400 µM): 43.1%
intensity of NLRP3 [12]: effectively reduced
expression of inflammatory cytokines [13]: reduced
expression of phosphorylated tau [13]: reduced
expression of β-amyloid [13]: reduced
expression of BACE-1 [13, 14]: suppressed
expression of GFAP [13, 14]: suppressed
expression of IBA-1 [13, 14]: suppressed
expression of NLRP3 [13, 14]: suppressed
